Patent publication US20060178307A1, “Modulation of NMDA receptor currents via orexin receptor and/or CRF receptor” (priority 2005, published 2006)
Entries after “also recorded” stand apart in the source; their conditions may differ. Where no end group is shown, it is not given here.

What was measured:
[1] = test system: NMDAR-mediated currents in VTA dopamine cells; assay: CRF-related peptides on NMDAR-mediated currents at excitatory synapses onto VTA dopamine cells; type: cell-based; conditions: mammalian brain
NMDAR eEPSCs = conditions: cited from earlier work
10% ethanol consumption = assay: Voluntary ethanol consumption, limited-access two-bottle choice, icv infusion; type: in vivo, Long Evans rats; conditions: 5 μg ICV, n=14
Description: Agents in these in vivo studies were administered to either the lateral ventricle (icv) or ventral tegmental area (VTA) in rats by cannulae, which were implanted as follows. One week after the rats achieved baseline drinking and lever pressing levels in the 2-bottle choice and ethanol self-administration paradigms described below, they were anesthetized with 75 mg/kg pentobarbital sodium and placed in a stereotaxic frame. The head was shaved and scrubbed with an antiseptic solution of betadine/2% H2O2, followed by 2.5% topical xylocalne jelly. The skull was exposed and two to three holes were drilled for implantation of sterile miniature skull screws (⅛″, Small Parts, Inc.). […]
These experiments test the effects of the CRF system on voluntary ethanol consumption using a limited-access paradigm. […] Animal weights were measured daily in order to calculate the gram per kilogram intake. Ethanol preference (%) was calculated as the grams of ethanol consumed divided by the total fluid consumption (grams of ethanol+grams of water). The data was corrected for evaporation and spillage by subtracting the mean fluid loss measured in four drinking tubes placed on empty cages. […]
The effects of CRF (5 μg) and the CRF inhibitor CRF (6-33) (5 μg) on limited access (30 min) 10% ethanol drinking were measured using a limited-access two-bottle choice procedure.

CRF: Corticotrophin-releasing factor, a 41 amino acid peptide; direct CRF receptor agonist (SEEPPISLDLTFHLLREVLEMARAEQLAQQAHSNRKLMEII; ends and bridges not checked; UniProt P06850 154-194, looked up)
potentiation of NMDAR currents [1]: increases
potentiation of NMDARs (NMDAR eEPSCs; 10 nM CRF, mice): no potentiation
NMDAR eEPSCs, concentration dependent (NMDAR eEPSCs; mice (FIG. 13)): increased

Urocortin: may be the endogenous CRF-R2 ligand and also binds CRF-BP (DNPSLSIDLTFHLLRTLLELARTQSQRERAEQNRIIFDSV; ends and bridges not checked; UniProt P55089 83-122, looked up)
potentiation of NMDAR currents [1]: mimics CRF

CRF (6-33): indirect CRF receptor antagonist that acts by displacing CRF from CRF-BP (ISLDLTFHLLREVLEMARAEQLAQQAHS; Corticoliberin; UniProt P06850 159-186, looked up, fragment)
10% ethanol consumption (10% ethanol consumption; limited access, compared to CRF alone): significantly reduced
water consumption (10% ethanol consumption): no effect; also recorded: did not reduce
